{"source": "ChEMBL document CHEMBL3272130", "about": "“Synthesis and hypotensive activity of some cyclopentano-1,2,3,4-tetrahydroisoquinolines” (J Med Chem, 1977)", "key": {"Rattus norvegicus [1]": {"tested_on": "Rattus norvegicus", "assay": "Cardiovascular activity in deoxycorticosterone acetate treated hypertensive CD rat assessed as change in heart rate at 5 mg, ip after 4 hrs relative to control", "assay_type": "ADME, organism-based", "settings": "in vivo"}, "Rattus norvegicus [2]": {"tested_on": "Rattus norvegicus", "assay": "Cardiovascular activity in deoxycorticosterone acetate treated hypertensive CD rat assessed as change in heart rate at 10 mg, ip after 2 hrs relative to control", "assay_type": "ADME, organism-based", "settings": "in vivo"}, "Rattus norvegicus [3]": {"tested_on": "Rattus norvegicus", "assay": "Hypotensive activity in deoxycorticosterone acetate treated hypertensive CD rat assessed as change in blood pressure at 5 mg, ip after 2 hrs relative to control", "assay_type": "functional"}, "Rattus norvegicus [4]": {"tested_on": "Rattus norvegicus", "assay": "Cardiovascular activity in deoxycorticosterone acetate treated hypertensive CD rat assessed as change in heart rate at 10 mg, ip after 24 hrs relative to control", "assay_type": "ADME, organism-based", "settings": "in vivo"}, "Rattus norvegicus [5]": {"tested_on": "Rattus norvegicus", "assay": "Cardiovascular activity in deoxycorticosterone acetate treated hypertensive CD rat assessed as change in heart rate at 5 mg, ip after 24 hrs relative to control", "assay_type": "ADME, organism-based", "settings": "in vivo"}, "Rattus norvegicus [6]": {"tested_on": "Rattus norvegicus", "assay": "Cardiovascular activity in deoxycorticosterone acetate treated hypertensive CD rat assessed as change in heart rate at 10 mg, ip after 4 hrs relative to control", "assay_type": "ADME, organism-based", "settings": "in vivo"}, "Rattus norvegicus [7]": {"tested_on": "Rattus norvegicus", "assay": "Cardiovascular activity in deoxycorticosterone acetate treated hypertensive CD rat assessed as change in heart rate at 5 mg, ip after 1 hr relative to control", "assay_type": "ADME, organism-based", "settings": "in vivo"}, "Rattus norvegicus [8]": {"tested_on": "Rattus norvegicus", "assay": "Hypotensive activity in deoxycorticosterone acetate treated hypertensive CD rat assessed as change in blood pressure at 10 mg, ip after 24 hrs relative to control", "assay_type": "functional"}, "Rattus norvegicus [9]": {"tested_on": "Rattus norvegicus", "assay": "Hypotensive activity in deoxycorticosterone acetate treated hypertensive CD rat assessed as change in blood pressure at 10 mg, ip after 4 hrs relative to control", "assay_type": "functional"}, "Rattus norvegicus [10]": {"tested_on": "Rattus norvegicus", "assay": "Hypotensive activity in deoxycorticosterone acetate treated hypertensive CD rat assessed as change in blood pressure at 5 mg, ip after 4 hrs relative to control", "assay_type": "functional"}, "[11]": {"assay": "Toxicity in ip dosed Swiss-Webster mouse after 24 hrs", "assay_type": "organism-based", "settings": "in vivo"}, "Rattus norvegicus [12]": {"tested_on": "Rattus norvegicus", "assay": "Hypotensive activity in deoxycorticosterone acetate treated hypertensive CD rat assessed as change in blood pressure at 5 mg, ip after 24 hrs relative to control", "assay_type": "functional"}, "Rattus norvegicus [13]": {"tested_on": "Rattus norvegicus", "assay": "Hypotensive activity in deoxycorticosterone acetate treated hypertensive CD rat assessed as change in blood pressure at 5 mg, ip after 1 hr relative to control", "assay_type": "functional"}, "Rattus norvegicus [14]": {"tested_on": "Rattus norvegicus", "assay": "Hypotensive activity in deoxycorticosterone acetate treated hypertensive CD rat assessed as change in blood pressure at 10 mg, ip after 2 hrs relative to control", "assay_type": "functional"}, "Rattus norvegicus [15]": {"tested_on": "Rattus norvegicus", "assay": "Cardiovascular activity in deoxycorticosterone acetate treated hypertensive CD rat assessed as change in heart rate at 5 mg, ip after 2 hrs relative to control", "assay_type": "ADME, organism-based", "settings": "in vivo"}, "Rattus norvegicus [16]": {"tested_on": "Rattus norvegicus", "assay": "Cardiovascular activity in deoxycorticosterone acetate treated hypertensive CD rat assessed as change in heart rate at 4 mg, ip after 2 hrs relative to control", "assay_type": "ADME, organism-based", "settings": "in vivo"}, "Rattus norvegicus [17]": {"tested_on": "Rattus norvegicus", "assay": "Hypotensive activity in deoxycorticosterone acetate treated hypertensive CD rat assessed as change in blood pressure at 4 mg, ip after 4 hrs relative to control", "assay_type": "functional"}, "Rattus norvegicus [18]": {"tested_on": "Rattus norvegicus", "assay": "Hypotensive activity in deoxycorticosterone acetate treated hypertensive CD rat assessed as change in blood pressure at 4 mg, ip after 24 hrs relative to control", "assay_type": "functional"}, "Rattus norvegicus [19]": {"tested_on": "Rattus norvegicus", "assay": "Hypotensive activity in deoxycorticosterone acetate treated hypertensive CD rat assessed as change in blood pressure at 4 mg, ip after 2 hrs relative to control", "assay_type": "functional"}, "Rattus norvegicus [20]": {"tested_on": "Rattus norvegicus", "assay": "Cardiovascular activity in deoxycorticosterone acetate treated hypertensive CD rat assessed as change in heart rate at 4 mg, ip after 24 hrs relative to control", "assay_type": "ADME, organism-based", "settings": "in vivo"}, "Rattus norvegicus [21]": {"tested_on": "Rattus norvegicus", "assay": "Cardiovascular activity in deoxycorticosterone acetate treated hypertensive CD rat assessed as change in heart rate at 4 mg, ip after 4 hrs relative to control", "assay_type": "ADME, organism-based", "settings": "in vivo"}, "Rattus norvegicus [22]": {"tested_on": "Rattus norvegicus", "assay": "Hypotensive activity in deoxycorticosterone acetate treated hypertensive CD rat assessed as change in blood pressure at 4 mg, ip after 1 hr relative to control", "assay_type": "functional"}, "Rattus norvegicus [23]": {"tested_on": "Rattus norvegicus", "assay": "Cardiovascular activity in deoxycorticosterone acetate treated hypertensive CD rat assessed as change in heart rate at 4 mg, ip after 1 hr relative to control", "assay_type": "ADME, organism-based", "settings": "in vivo"}, "Rattus norvegicus [24]": {"tested_on": "Rattus norvegicus", "assay": "Hypotensive activity in deoxycorticosterone acetate treated hypertensive CD rat assessed as change in blood pressure at 25 mg, ip after 1 hr relative to control", "assay_type": "functional"}, "Rattus norvegicus [25]": {"tested_on": "Rattus norvegicus", "assay": "Cardiovascular activity in deoxycorticosterone acetate treated hypertensive CD rat assessed as change in heart rate at 25 mg, ip after 24 hrs relative to control", "assay_type": "ADME, organism-based", "settings": "in vivo"}, "Rattus norvegicus [26]": {"tested_on": "Rattus norvegicus", "assay": "Cardiovascular activity in deoxycorticosterone acetate treated hypertensive CD rat assessed as change in heart rate at 25 mg, ip after 1 hr relative to control", "assay_type": "ADME, organism-based", "settings": "in vivo"}, "Rattus norvegicus [27]": {"tested_on": "Rattus norvegicus", "assay": "Cardiovascular activity in deoxycorticosterone acetate treated hypertensive CD rat assessed as change in heart rate at 25 mg, ip after 2 hrs relative to control", "assay_type": "ADME, organism-based", "settings": "in vivo"}, "Rattus norvegicus [28]": {"tested_on": "Rattus norvegicus", "assay": "Cardiovascular activity in deoxycorticosterone acetate treated hypertensive CD rat assessed as change in heart rate at 25 mg, ip after 4 hrs relative to control", "assay_type": "ADME, organism-based", "settings": "in vivo"}, "Rattus norvegicus [29]": {"tested_on": "Rattus norvegicus", "assay": "Hypotensive activity in deoxycorticosterone acetate treated hypertensive CD rat assessed as change in blood pressure at 25 mg, ip after 2 hrs relative to control", "assay_type": "functional"}, "Rattus norvegicus [30]": {"tested_on": "Rattus norvegicus", "assay": "Hypotensive activity in deoxycorticosterone acetate treated hypertensive CD rat assessed as change in blood pressure at 25 mg, ip after 4 hrs relative to control", "assay_type": "functional"}, "Rattus norvegicus [31]": {"tested_on": "Rattus norvegicus", "assay": "Hypotensive activity in deoxycorticosterone acetate treated hypertensive CD rat assessed as change in blood pressure at 25 mg, ip after 24 hrs relative to control", "assay_type": "functional"}}}
{"smiles": "COc1c2c(c3c(c1OC)CCNC3)CCC2", "values": [{"measurement": "Activity", "setting": "Rattus norvegicus [1]", "value": -8.5, "unit": "%"}, {"measurement": "Activity", "setting": "Rattus norvegicus [2]", "value": 4.7, "unit": "%"}, {"measurement": "Activity", "setting": "Rattus norvegicus [3]", "value": -3, "unit": "%"}, {"measurement": "Activity", "setting": "Rattus norvegicus [4]", "value": -2.6, "unit": "%"}, {"measurement": "Activity", "setting": "Rattus norvegicus [5]", "value": -12.2, "unit": "%"}, {"measurement": "Activity", "setting": "Rattus norvegicus [6]", "value": 9, "unit": "%"}, {"measurement": "Activity", "setting": "Rattus norvegicus [7]", "value": -5.2, "unit": "%"}, {"measurement": "Activity", "setting": "Rattus norvegicus [8]", "value": 1, "unit": "%"}, {"measurement": "Activity", "setting": "Rattus norvegicus [9]", "value": 2.4, "unit": "%"}, {"measurement": "Activity", "setting": "Rattus norvegicus [10]", "value": -6.5, "unit": "%"}, {"measurement": "LD50 at 24 h", "setting": "[11]", "value": 25, "unit": "mg/kg"}, {"measurement": "Activity", "setting": "Rattus norvegicus [12]", "value": 1.8, "unit": "%"}, {"measurement": "Activity", "setting": "Rattus norvegicus [13]", "value": -9.5, "unit": "%"}, {"measurement": "Activity", "setting": "Rattus norvegicus [14]", "value": -13.2, "unit": "%"}, {"measurement": "Activity", "setting": "Rattus norvegicus [15]", "value": -1.4, "unit": "%"}]}
{"smiles": "Br.COc1c2c(c3c(c1OC)CCN(C)C3)CCC2", "values": [{"measurement": "Activity", "setting": "Rattus norvegicus [16]", "value": 11.2, "unit": "%"}, {"measurement": "Activity", "setting": "Rattus norvegicus [17]", "value": -2.6, "unit": "%"}, {"measurement": "Activity", "setting": "Rattus norvegicus [18]", "value": 19.7, "unit": "%"}, {"measurement": "Activity", "setting": "Rattus norvegicus [19]", "value": 12.2, "unit": "%"}, {"measurement": "Activity", "setting": "Rattus norvegicus [20]", "value": 1.8, "unit": "%"}, {"measurement": "LD50 at 24 h", "setting": "[11]", "value": 10, "unit": "mg/kg"}, {"measurement": "Activity", "setting": "Rattus norvegicus [21]", "value": -0.4, "unit": "%"}, {"measurement": "Activity", "setting": "Rattus norvegicus [22]", "value": 13, "unit": "%"}, {"measurement": "Activity", "setting": "Rattus norvegicus [23]", "value": 13.2, "unit": "%"}]}
{"smiles": "Br.CCC(C)CN1CCc2c(c3c(c(OC)c2OC)CCC3)C1", "note": "(stereo not drawn)", "values": [{"measurement": "Activity", "setting": "Rattus norvegicus [24]", "value": -17.2, "unit": "%"}, {"measurement": "Activity", "setting": "Rattus norvegicus [25]", "value": -0.3, "unit": "%"}, {"measurement": "Activity", "setting": "Rattus norvegicus [26]", "value": 13.7, "unit": "%"}, {"measurement": "Activity", "setting": "Rattus norvegicus [27]", "value": 11.8, "unit": "%"}, {"measurement": "Activity", "setting": "Rattus norvegicus [28]", "value": 5, "unit": "%"}, {"measurement": "Activity", "setting": "Rattus norvegicus [29]", "value": -12.6, "unit": "%"}, {"measurement": "LD50 at 24 h", "setting": "[11]", "value": 178, "unit": "mg/kg"}, {"measurement": "Activity", "setting": "Rattus norvegicus [30]", "value": -6.7, "unit": "%"}, {"measurement": "Activity", "setting": "Rattus norvegicus [31]", "value": 1.3, "unit": "%"}]}
